Tests used:
Format in all cases: binding
AKT1 = molecular target: T1, AKT1 (Homo sapiens, UniProt P31749); experiment: Protein stability assay, AlphaLISA endpoint, HEK293T cell lysate, EA (Example 8)
T1 construct: endogenous in cells; host or cells: HEK293T
Protocol: (§1) Lysate from HEK293T cells grown in continuous culture at 5% CO2/37° C. in full growth media (RPMI (Gibco 11835-063), 10% FCS (Gibco F7524) 1% Glutamax (Gibco 35050-061)) was produced by growing cells in flasks to 85% confluence, removing from the surface using 3 ml Tryple Select (Gibco 12563011), centrifuging (1000 rpm for 4 minutes) to pellet, washing cell pellet two times in DPBS (Gibco 14190-094), resuspending in 1 ml of DPBS (Gibco 14190-094) containing 1× HALT Protease and Phosphatase inhibitor cocktail (Thermo Scientific 78440) per flask and lysing by three cycles of a liquid nitrogen freeze followed by thawing at room temperature. […]
To run the protein stability assay, an aliquot of HEK293T cell lysate at 4 μg/μl was thawed at room temperature and 2 μl added to each well of a 384-well White ProxiPlate (Perkin Elmer 6008280) containing […] MK-2206 (LKT Laboratories M400220) or an equivalent volume of DMSO dosed using the Labcyte ECHO. […] While incubating, fresh 100% EA (Ethanol (10437341) and Acetic Acid (10365020), all from Fisher Scientific in a ratio of 100:0.1) denaturant was made in a glass bottle ready for use. An aliquot of 100% EA was diluted to 50% in DPBS (Gibco 14190-094) ready to produce titration curves of denaturant. […]

p38α MAPK = p38α MAPK (Homo sapiens, UniProt Q16539); experiment: Protein stability assay screening study, AlphaLISA endpoint, HEK293T cell lysate, compound concentration response at fixed AEA or EA (Example 2); set-up: endogenous in cells; host or cells: HEK293T; settings: fixed 22% AEA or 20% EA, 10-point concentration response
Chain of p38α MAPK (Q16539 whole entry): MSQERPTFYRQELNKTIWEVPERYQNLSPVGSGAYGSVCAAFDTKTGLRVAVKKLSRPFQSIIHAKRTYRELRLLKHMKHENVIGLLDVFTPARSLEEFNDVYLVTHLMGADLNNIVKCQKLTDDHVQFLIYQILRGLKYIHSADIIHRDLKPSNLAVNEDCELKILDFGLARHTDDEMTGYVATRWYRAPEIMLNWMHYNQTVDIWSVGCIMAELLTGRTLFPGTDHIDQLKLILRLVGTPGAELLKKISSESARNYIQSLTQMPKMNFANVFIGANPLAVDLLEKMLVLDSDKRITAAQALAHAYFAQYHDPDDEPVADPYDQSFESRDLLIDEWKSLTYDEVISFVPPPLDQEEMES
Protocol: The fixed denaturant concentration to be added was made up as a 5/4 stock so that when 8 μl of denaturant was added to 2 μl lysate the final volume was 10 μl and the denaturant concentrations were as listed above. After compound/lysate incubation was complete 8 μl of the prepared AEA or EA stock was added to each well of separate plates, the contents of the plates were settled by a short pulse spin, sealed, and then incubated with shaking at 800 rpm for 120 minutes on a heated plate shaker set to 21° C. For signal detection an antibody detection mix was made up no more than 20 minutes prior to use. […] 10 μl of antibody bead mix was added to each test well, the contents of the plates were settled by a short pulse spin, sealed, shaken gently for 1-2 minutes, wrapped in foil, and then incubated for 16-18 hours in the dark. After incubation the plates were read on a fluorescence detecting plate reader (Excitation 680 nm, Emission 615 nm) to determine well signals. Concentration response curves were produced from normalised data using the Genedata Screener data analysis package, and EC50 values generated to allow data comparison between the two denaturant types.

CDK9 = molecular target: T2, CDK9 (Homo sapiens, UniProt P50750); experiment: Protein stability assay with Western blot endpoint, cell lysate, AEA titration (Example 5); settings: 100 μM compound as printed, vs DMSO
T2 construct: Lysate from U-2 OS cells grown in continuous culture; endogenous in cells; b320 says HEK293T
T2 sequence (P50750 whole entry): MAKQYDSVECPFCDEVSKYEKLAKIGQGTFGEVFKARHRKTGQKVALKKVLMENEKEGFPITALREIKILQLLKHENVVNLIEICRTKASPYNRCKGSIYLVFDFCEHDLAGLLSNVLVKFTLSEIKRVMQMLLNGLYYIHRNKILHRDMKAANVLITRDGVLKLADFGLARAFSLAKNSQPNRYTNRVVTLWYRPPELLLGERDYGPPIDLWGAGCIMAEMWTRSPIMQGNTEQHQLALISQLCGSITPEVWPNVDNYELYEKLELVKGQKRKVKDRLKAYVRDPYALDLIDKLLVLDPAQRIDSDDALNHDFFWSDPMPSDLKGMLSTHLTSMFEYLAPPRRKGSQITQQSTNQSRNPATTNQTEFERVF
T2 sequence (O60563 whole entry partner): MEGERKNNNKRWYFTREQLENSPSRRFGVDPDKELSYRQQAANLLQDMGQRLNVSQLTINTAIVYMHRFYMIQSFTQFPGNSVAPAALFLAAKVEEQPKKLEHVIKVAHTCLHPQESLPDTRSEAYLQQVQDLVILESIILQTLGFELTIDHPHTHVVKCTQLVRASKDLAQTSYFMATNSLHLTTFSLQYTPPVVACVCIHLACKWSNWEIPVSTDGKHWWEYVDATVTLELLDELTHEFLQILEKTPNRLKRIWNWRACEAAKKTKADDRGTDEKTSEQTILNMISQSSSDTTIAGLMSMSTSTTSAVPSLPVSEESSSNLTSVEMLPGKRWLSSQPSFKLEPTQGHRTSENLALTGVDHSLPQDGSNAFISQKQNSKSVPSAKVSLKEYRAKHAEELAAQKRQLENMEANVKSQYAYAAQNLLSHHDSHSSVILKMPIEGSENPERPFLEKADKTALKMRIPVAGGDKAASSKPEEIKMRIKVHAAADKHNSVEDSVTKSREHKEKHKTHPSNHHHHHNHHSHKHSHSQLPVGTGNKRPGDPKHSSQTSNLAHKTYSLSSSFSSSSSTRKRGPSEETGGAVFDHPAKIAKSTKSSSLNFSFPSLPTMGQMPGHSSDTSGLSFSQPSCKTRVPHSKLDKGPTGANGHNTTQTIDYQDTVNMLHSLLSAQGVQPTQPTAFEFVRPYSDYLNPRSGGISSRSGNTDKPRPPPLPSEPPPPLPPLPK
Protocol: as §1, with “Lysate from U-2 OS cells grown” for “Lysate from HEK293T cells grown”, “cells in T175 flasks to” for “cells in flasks to”, “14190-094), resuspending 1 ml” for “14190-094), resuspending in 1 ml”
Lysate/compound mixes were incubated for 30-60 minutes at room temperature. While incubating, fresh 100% AEA (Acetone (11443733) Ethanol (10437341) and Acetic Acid (10365020), all from Fisher Scientific in a ratio of 50:50:0.1) denaturant was made in a glass bottle ready for use. An aliquot of 100% AEA was diluted to 50% in DPBS (Gibco 14190-094) ready to produce either titration curves or a fixed concentration of denaturant. […]

T1 sequence (P31749 whole entry): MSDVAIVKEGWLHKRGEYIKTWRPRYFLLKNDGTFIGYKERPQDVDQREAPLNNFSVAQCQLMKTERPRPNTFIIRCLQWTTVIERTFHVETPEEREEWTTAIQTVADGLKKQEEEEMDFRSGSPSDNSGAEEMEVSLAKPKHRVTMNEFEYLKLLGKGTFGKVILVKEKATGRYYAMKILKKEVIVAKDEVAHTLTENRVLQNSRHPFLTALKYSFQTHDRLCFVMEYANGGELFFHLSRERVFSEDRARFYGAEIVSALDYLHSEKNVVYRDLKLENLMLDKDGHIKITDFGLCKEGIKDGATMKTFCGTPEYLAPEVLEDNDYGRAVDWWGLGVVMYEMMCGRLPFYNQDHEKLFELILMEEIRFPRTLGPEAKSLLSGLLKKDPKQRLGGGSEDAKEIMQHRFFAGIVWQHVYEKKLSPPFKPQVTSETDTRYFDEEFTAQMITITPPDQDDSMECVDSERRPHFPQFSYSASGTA

## NC1(c2ccc(-c3nc4ccn5c(=O)[nH]nc5c4cc3-c3ccccc3)cc2)CCC1 [MK-2206]
AKT1; 10 μM compound, EA titration, vs DMSO only
  stabilisation of AKT1 protein (shift in protein denaturation curves): stabilisation of AKT1 protein
AKT1; fixed 18% EA
  AKT1 protein stabilisation, concentration response curve: AKT1 protein stabilisation by MK-2206 in a dose dependent manner

## O=c1ncn2nc(Sc3ccc(F)cc3F)ccc2c1-c1c(Cl)cccc1Cl [VX 745]
p38α MAPK
  stabilisation of protein, compound concentration response curves: stabilisation of protein in a dose dependent manner

## Cc1ncc(-c2ccnc(Nc3ccc(S(C)(=O)=O)cc3)n2)n1C(C)C [AZD5438]
CDK9
  stabilisation of CDK9 protein against chemical denaturation: increased stabilisation of CDK9 protein

## Cc1c(F)cc(C(=O)NC2CC2)cc1-c1c(F)cn2c(C(C)(C)C)nnc2c1F [AL 8697]
p38α MAPK
  stabilisation of protein, compound concentration response curves: stabilisation of protein in a dose dependent manner

From patent US20250044299A1, “PROTEIN STABILITY ASSAY” (Medicines Discovery Catapult Limited, priority 2021, published 2025)
